According to PubChem BioAssay AID1845210 (Molecular Pharmacology Branch, DTP, NCI, 2023):

Tested on: NCI-H226 complex tumor spheroids, viability
Test: Anticancer human tumor NCI-H226 cell line growth inhibition;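 also: spheroids exposed to compound for 7 days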;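 as to viability, T/C: 100% = DMSO vehicle control viability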
Details: for viability, T/C: stronger effect = lower value
Outline: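 Single agents and combinations were tested on spheroids built from tumor cells plus HUVEC and hMSC, at half-log dilutions starting at or near clinical Cmax, else 10 microM; final DMSO 0.25% (v/v).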

[1] = curve of first compound, second compound 0.003 µM
[2] = curve of first compound, second compound 0.00949 µM
[3] = curve of first compound, second compound 0.03 µM
[4] = curve of first compound, second compound 0.0949 µM
[5] = curve of first compound, second compound 0.3 µM
[6] = second compound 0.003 µM, first compound 0.00949 µM
[7] = second compound 0.003 µM, first compound 0.03 µM
[8] = second compound 0.003 µM, first compound 0.0949 µM
[9] = second compound 0.003 µM, first compound 0.3 µM
[10] = second compound 0.003 µM, first compound 0.949 µM
[11] = second compound 0.003 µM, first compound 3 µM

For `Cn1ncnc1[C@H]1c2n[nH]c(=O)c3cc(F)cc(c23)N[C@@H]1c1ccc(F)cc1` + CC[C@@]1(O)C(=O)OCc2c1cc1n(c2=O)Cc2cc3c(CN(C)C)c(O)ccc3nc2-1, the IC50 [1] was over 3000 nM, the IC50 [2] was over 3000 nM and the IC50 [3] was over 3000 nM. The IC50 [4] was over 3000 nM, the IC50 [5] was over 3000 nM and the viability, T/C [6] was 102%. The viability, T/C [7] was 87.8%, the viability, T/C [8] was 88.7% and the viability, T/C [9] was 82.4%. The viability, T/C [10] was 93.7%, the viability, T/C [11] was 98.7% and the viability, T/C (second compound 0.00949 µM, first compound 0.00949 µM) was 84.4%. For the same molecule, the viability, T/C (second compound 0.00949 µM, first compound 0.03 µM) was 106%, the viability, T/C (second compound 0.00949 µM, first compound 0.0949 µM) was 88.3% and the viability, T/C (second compound 0.00949 µM, first compound 0.3 µM) was 95.2%. For the same molecule, the viability, T/C (second compound 0.00949 µM, first compound 0.949 µM) was 82.6%, the viability, T/C (second compound 0.00949 µM, first compound 3 µM) was 91.6% and the viability, T/C (second compound 0.03 µM, first compound 0.00949 µM) was 89.4%. The viability, T/C (second compound 0.03 µM, first compound 0.03 µM) was 80.1%, the viability, T/C (second compound 0.03 µM, first compound 0.0949 µM) was 92.2% and the viability, T/C (second compound 0.03 µM, first compound 0.3 µM) was 79.9%. For the same molecule, the viability, T/C (second compound 0.03 µM, first compound 0.949 µM) was 91.1%, the viability, T/C (second compound 0.03 µM, first compound 3 µM) was 91.9% and the viability, T/C (second compound 0.0949 µM, first compound 0.00949 µM) was 70.8%. It also gave a viability, T/C (second compound 0.0949 µM, first compound 0.03 µM) of 73.5%, a viability, T/C (second compound 0.0949 µM, first compound 0.0949 µM) of 66.1% and a viability, T/C (second compound 0.0949 µM, first compound 0.3 µM) of 72.2%. The viability, T/C (second compound 0.0949 µM, first compound 0.949 µM) was 69.2%, the viability, T/C (second compound 0.0949 µM, first compound 3 µM) was 77.8% and the viability, T/C (second compound 0.3 µM, first compound 0.00949 µM) was 60.5%. The viability, T/C (second compound 0.3 µM, first compound 0.03 µM) was 59%, the viability, T/C (second compound 0.3 µM, first compound 0.0949 µM) was 58.9% and the viability, T/C (second compound 0.3 µM, first compound 0.3 µM) was 56.5%. It also gave a viability, T/C (second compound 0.3 µM, first compound 0.949 µM) of 59.2% and a viability, T/C (second compound 0.3 µM, first compound 3 µM) of 66.9%.
With `Cn1nnc2c(C(N)=O)ncn2c1=O` the viability, T/C (compound 3.16 µM) was 112% [middle of 10 runs], the viability, T/C (compound 10 µM) was 108% [middle of 10 runs] and the viability, T/C (compound 31.6 µM) was 110% [middle of 10 runs]. The viability, T/C (compound 100 µM) was 109% [middle of 10 runs] and the IC50 (compound alone, run of 12/02/2019) was over 100000 nM.
`CC1COCCN1c1cc(-c2ccnn2C)c2ccnc(-c3ccn[nH]3)c2n1` (stereo not given) + CC[C@@]1(O)C(=O)OCc2c1cc1n(c2=O)Cc2cc3c(CN(C)C)c(O)ccc3nc2-1 showed an IC50 [1] of 1040 nM, an IC50 [2] of 1090 nM and an IC50 [3] of 823 nM. For the same molecule, the IC50 [4] was 814 nM, the IC50 [5] was 518 nM and the viability, T/C (second compound 0.003 µM, first compound 0.0316 µM) was 97.2%. It also gave a viability, T/C (second compound 0.003 µM, first compound 0.1 µM) of 81.5%, a viability, T/C (second compound 0.003 µM, first compound 0.316 µM) of 74% and a viability, T/C (second compound 0.003 µM, first compound 1 µM) of 47.6%. The viability, T/C (second compound 0.003 µM, first compound 3.16 µM) was 39.2%, the viability, T/C (second compound 0.003 µM, first compound 10 µM) was 36.1% and the viability, T/C (second compound 0.00949 µM, first compound 0.0316 µM) was 93.8%. For the same molecule, the viability, T/C (second compound 0.00949 µM, first compound 0.1 µM) was 85.1%, the viability, T/C (second compound 0.00949 µM, first compound 0.316 µM) was 69.3% and the viability, T/C (second compound 0.00949 µM, first compound 1 µM) was 52.5%. The viability, T/C (second compound 0.00949 µM, first compound 3.16 µM) was 36.1%, the viability, T/C (second compound 0.00949 µM, first compound 10 µM) was 33.4% and the viability, T/C (second compound 0.03 µM, first compound 0.0316 µM) was 83.1%. It also gave a viability, T/C (second compound 0.03 µM, first compound 0.1 µM) of 76.3%, a viability, T/C (second compound 0.03 µM, first compound 0.316 µM) of 63.6% and a viability, T/C (second compound 0.03 µM, first compound 1 µM) of 48.1%. The viability, T/C (second compound 0.03 µM, first compound 3.16 µM) was 36.8%, the viability, T/C (second compound 0.03 µM, first compound 10 µM) was 37.9% and the viability, T/C (second compound 0.0949 µM, first compound 0.0316 µM) was 82.2%. The viability, T/C (second compound 0.0949 µM, first compound 0.1 µM) was 71.3%, the viability, T/C (second compound 0.0949 µM, first compound 0.316 µM) was 65.1% and the viability, T/C (second compound 0.0949 µM, first compound 1 µM) was 46.1%. For the same molecule, the viability, T/C (second compound 0.0949 µM, first compound 3.16 µM) was 37.4%, the viability, T/C (second compound 0.0949 µM, first compound 10 µM) was 34.9% and the viability, T/C (second compound 0.3 µM, first compound 0.0316 µM) was 71.2%. The viability, T/C (second compound 0.3 µM, first compound 0.1 µM) was 66.9%, the viability, T/C (second compound 0.3 µM, first compound 0.316 µM) was 56.8% and the viability, T/C (second compound 0.3 µM, first compound 1 µM) was 41.4%. For the same molecule, the viability, T/C (second compound 0.3 µM, first compound 3.16 µM) was 36.3% and the viability, T/C (second compound 0.3 µM, first compound 10 µM) was 38.1%.
`Cn1ncnc1[C@H]1c2n[nH]c(=O)c3cc(F)cc(c23)N[C@@H]1c1ccc(F)cc1` + COc1cc2c(cc1O)CCNC21CSC2c3c(OC(C)=O)c(C)c4c(c3C(COC1=O)N1C(O)C3Cc5cc(C)c(OC)c(O)c5C(C21)N3C)OCO4 was tested, and the IC50 (curve of first compound, second compound 30 pM) was over 3000 nM, the IC50 (curve of first compound, second compound 94.9 pM) was over 3000 nM and the IC50 (curve of first compound, second compound 0.0003 µM) was over 3000 nM. The IC50 (curve of first compound, second compound 0.000949 µM) was over 3000 nM, the IC50 [1] was 157 nM and the viability, T/C (second compound 30 pM, first compound 0.00949 µM) was 90%. The viability, T/C (second compound 30 pM, first compound 0.03 µM) was 103%, the viability, T/C (second compound 30 pM, first compound 0.0949 µM) was 106% and the viability, T/C (second compound 30 pM, first compound 0.3 µM) was 92.8%. For the same molecule, the viability, T/C (second compound 30 pM, first compound 0.949 µM) was 91.3%, the viability, T/C (second compound 30 pM, first compound 3 µM) was 111% and the viability, T/C (second compound 94.9 pM, first compound 0.00949 µM) was 103%. For the same molecule, the viability, T/C (second compound 94.9 pM, first compound 0.03 µM) was 101%, the viability, T/C (second compound 94.9 pM, first compound 0.0949 µM) was 104% and the viability, T/C (second compound 94.9 pM, first compound 0.3 µM) was 102%. For the same molecule, the viability, T/C (second compound 94.9 pM, first compound 0.949 µM) was 101%, the viability, T/C (second compound 94.9 pM, first compound 3 µM) was 110% and the viability, T/C (second compound 0.0003 µM, first compound 0.00949 µM) was 122%. For the same molecule, the viability, T/C (second compound 0.0003 µM, first compound 0.03 µM) was 100%, the viability, T/C (second compound 0.0003 µM, first compound 0.0949 µM) was 113% and the viability, T/C (second compound 0.0003 µM, first compound 0.3 µM) was 119%. The viability, T/C (second compound 0.0003 µM, first compound 0.949 µM) was 119%, the viability, T/C (second compound 0.0003 µM, first compound 3 µM) was 113% and the viability, T/C (second compound 0.000949 µM, first compound 0.00949 µM) was 79.2%. The viability, T/C (second compound 0.000949 µM, first compound 0.03 µM) was 76.2%, the viability, T/C (second compound 0.000949 µM, first compound 0.0949 µM) was 71.1% and the viability, T/C (second compound 0.000949 µM, first compound 0.3 µM) was 93.3%. The viability, T/C (second compound 0.000949 µM, first compound 0.949 µM) was 87.1%, the viability, T/C (second compound 0.000949 µM, first compound 3 µM) was 76.2% and the viability, T/C [6] was 53.1%. The viability, T/C [7] was 70.3%, the viability, T/C [8] was 85.7% and the viability, T/C [9] was 24.9%. It also gave a viability, T/C [10] of 20.6% and a viability, T/C [11] of 0.42%.
